The record followed here is ChEMBL document CHEMBL6114940, “Exploring the pharmaceutical potential of ammonium organotrifluoroborate functional group: Comprehensive chemical, metabolic, and plasma stability evaluation” (Eur J Med Chem, 2024).

The nature of data set [1]: Stability of compound in 0.9 % saline solution assessed as half life incubated for 72 hrs by LC-MS analysis. It counts as physicochemical.
The nature of data set [2]: Stability in mouse plasma measured after 1 hr by LC-HRMS analysis. It counts as ADME, cell-free. The following applies: read-out: Stability.
Data set [3] can be described thus: Stability of compound in 0.05 M HCL assessed as solvolysis constant (K) incubated for 72 hrs by LC-MS analysis. It counts as physicochemical. Also noted: unit not given beside the values. The following applies: buffer.
Data set [4] can be described thus: Stability of compound in 0.5 M NaOH assessed as solvolysis constant (K) incubated for 72 hrs by LC-MS analysis. It counts as physicochemical. More on the design: unit not given beside the values.
A short description of data set [5]: Stability of compound in 0.3 % H2O2 assessed as (2R,3S,4S,5R,6R)-2-(hydroxymethyl)-6-(2-(2-(2-(piperidin-1-yl)ethoxy)ethoxy)ethoxy)tetrahydro-2H-pyran-3,4,5-triol formation incubated for 1 hrs by LC-MS analysis. It counts as physicochemical.
The nature of data set [6]: Stability of compound in 0.5 M NaOH assessed as half life incubated for 72 hrs by LC-MS analysis. It counts as physicochemical.
The nature of data set [7]: Stability of compound in 50 mM Tris-HCL buffer at pH 7.4 assessed as solvolysis constant (K) incubated for 72 hrs by LC-MS analysis. It counts as physicochemical. The following applies: pH 7.4, 72 h.
Data set [8] is described as follows: Metabolic stability in mouse liver microsomes assessed as drug hydrolysis by measuring 1-(boronomethyl)-1-(2-(2-(2-(((2R,3R,4S,5S,6R)-3,4,5-trihydroxy-6-(hydroxymethyl)tetrahydro-2H-pyran-2-yl)oxy)ethoxy)ethoxy)ethyl)piperidin-1-ium formation incubated for 1 hrs by LC-MS/MS analysis. It counts as ADME, Microsome. For orientation: Liver microsomes are vesicles of endoplasmic reticulum, rich in cytochrome P450 enzymes.

A short description of data set [9]: Stability of compound in 0.05 M HCL assessed as half life incubated for 72 hrs by LC-MS analysis. It counts as physicochemical.
The nature of data set [10]: Stability of compound in 0.5 M NaOH assessed as 1-(boronomethyl)-1-(2-(2-(2-(((2R,3R,4S,5S,6R)-3,4,5-trihydroxy-6-(hydroxymethyl)tetrahydro-2H-pyran-2-yl)oxy)ethoxy)ethoxy)ethyl)piperidin-1-ium formation incubated for 72 hrs by LC-MS analysis. It counts as physicochemical.
A short description of data set [11]: Stability of compound in 0.05 M HCL assessed as 1-(boronomethyl)-1-(2-(2-(2-(((2R,3R,4S,5S,6R)-3,4,5-trihydroxy-6-(hydroxymethyl)tetrahydro-2H-pyran-2-yl)oxy)ethoxy)ethoxy)ethyl)piperidin-1-ium formation incubated for 72 hrs by LC-MS analysis. The following applies: buffer. It counts as physicochemical.
The nature of data set [12]: Stability of compound in 20 mM CH3COONH4 buffer at pH 5.8 assessed as half life incubated for 72 hrs by LC-MS analysis. The following applies: 20 mM ammonium acetate (CH3COONH4) buffer. It counts as physicochemical.
Data set [13] in a line: Stability of compound in 50 mM Tris-HCL buffer at pH 7.4 assessed as 1-(boronomethyl)-1-(2-(2-(2-(((2R,3R,4S,5S,6R)-3,4,5-trihydroxy-6-(hydroxymethyl)tetrahydro-2H-pyran-2-yl)oxy)ethoxy)ethoxy)ethyl)piperidin1ium formation incubated for 72 hrs by LC-MS analysis. The following applies: pH 7.4, 72 h. It counts as physicochemical.
The nature of data set [14]: Stability of compound in 0.9 % saline solution assessed as solvolysis constant (K) incubated for 72 hrs by LC-MS analysis. It counts as physicochemical. The following applies: buffer.
Data set [15] can be described thus: Stability of compound in 20 mM CH3COONH4 buffer at pH 5.8 assessed as solvolysis constant (K) incubated for 72 hrs by LC-MS analysis. It counts as physicochemical. More on the design: unit not given beside the values. The following applies: pH 5.8, 72 h.
Data set [16] is described as follows: Stability of compound in 0.5 M NaOH assessed as 1-methyl-1-(2-(2-(2-(((2R,3R,4S,5S,6R)-3,4,5-trihydroxy-6-(hydroxymethyl)tetrahydro-2H-pyran-2-yl)oxy)ethoxy)ethoxy)ethyl)piperidin-1-ium formation incubated for 72 hrs by LC-MS analysis. It counts as physicochemical.
The nature of data set [17]: Stability of compound in 20 mM CH3COONH4 buffer at pH 5.8 assessed as 1-(boronomethyl)-1-(2-(2-(2-(((2R,3R,4S,5S,6R)-3,4,5-trihydroxy-6-(hydroxymethyl)tetrahydro-2H-pyran-2-yl)oxy)ethoxy)ethoxy)ethyl)piperidin-1-ium formation incubated for 72 hrs by LC-MS analysis. It counts as physicochemical. The following applies: pH 5.8, 72 h.
Data set [18] is described as follows: Stability of compound in 0.9 % saline solution assessed as 1-(boronomethyl)-1-(2-(2-(2-(((2R,3R,4S,5S,6R)-3,4,5-trihydroxy-6-(hydroxymethyl)tetrahydro-2H-pyran-2-yl)oxy)ethoxy)ethoxy)ethyl)piperidin-1-ium formation incubated for 72 hrs by LC-MS analysis. It counts as physicochemical. The following applies: buffer.
The nature of data set [19]: Stability of compound in 50 mM Tris-HCL buffer at pH 7.4 assessed as half life incubated for 72 hrs by LC-MS analysis. It counts as physicochemical.
Data set [20] is described as follows: Stability of compound in 20 mM CH3COONH4 buffer at pH 5.8 assessed as 1-borono-N,N-dimethyl-N-((1-(2-(2-(2-(((2R,3R,4S,5S,6R)-3,4,5-trihydroxy-6-(hydroxymethyl)tetrahydro-2H-pyran-2-yl)oxy)ethoxy)ethoxy)ethyl)-1H-1,2,3-triazol-4-yl)methyl)methanaminium formation incubated for 72 hrs by LC-MS analysis. It counts as physicochemical. The following applies: pH 5.8, 72 h.

Data set [21] in a line: Stability of compound in 50 mM Tris-HCL buffer at pH 7.4 assessed as 1-borono-N,N-dimethyl-N-((1-(2-(2-(2-(((2R,3R,4S,5S,6R)-3,4,5-trihydroxy-6-(hydroxymethyl)tetrahydro-2H-pyran-2-yl)oxy)ethoxy)ethoxy)ethyl)-1H-1,2,3-triazol-4-yl)methyl)methanaminium formation incubated for 72 hrs by LC-MS analysis. It counts as physicochemical. The following applies: pH 7.4, 72 h.
Data set [22] in a line: Stability of compound in 0.5 M NaOH assessed as N,N,N-trimethyl-1-(1-(2-(2-(2-(((2R,3R,4S,5S,6R)-3,4,5-trihydroxy-6-(hydroxymethyl)tetrahydro-2H-pyran-2-yl)oxy)ethoxy)ethoxy)ethyl)-1H-1,2,3-triazol-4-yl)methanaminium formation incubated for 72 hrs by LC-MS analysis. It counts as physicochemical.
The nature of data set [23]: Stability of compound in 0.3 % H2O2 assessed as (2R,3R,4S,5S,6R)-2-(2-(2-(2-(4-((dimethylamino)methyl)-1H-1,2,3-triazol-1-yl)ethoxy)ethoxy)ethoxy)-6-(hydroxymethyl)tetrahydro-2H-pyran-3,4,5-triol formation incubated for 1 hrs by LC-MS analysis. It counts as physicochemical.
Data set [24] can be described thus: Metabolic stability in mouse liver microsomes assessed as drug hydrolysis 1-borono-N,N-dimethyl-N-((1-(2-(2-(2-(((2R,3R,4S,5S,6R)-3,4,5-trihydroxy-6-(hydroxymethyl)tetrahydro-2H-pyran-2-yl)oxy)ethoxy)ethoxy)ethyl)-1H-1,2,3-triazol-4-yl)methyl)methanaminium formation incubated for 1 hrs by LC-MS/MS analysis. It counts as ADME, Microsome.
Data set [25] is described as follows: Stability of compound in 0.5 M NaOH assessed as 1-borono-N,N-dimethyl-N-((1-(2-(2-(2-(((2R,3R,4S,5S,6R)-3,4,5-trihydroxy-6-(hydroxymethyl)tetrahydro-2H-pyran-2-yl)oxy)ethoxy)ethoxy)ethyl)-1H-1,2,3-triazol-4-yl)methyl)methanaminium formation incubated for 72 hrs by LC-MS analysis. It counts as physicochemical.
The nature of data set [26]: Stability of compound in 0.05 M HCL assessed as 1-borono-N,N-dimethyl-N-((1-(2-(2-(2-(((2R,3R,4S,5S,6R)-3,4,5-trihydroxy-6-(hydroxymethyl)tetrahydro-2H-pyran-2-yl)oxy)ethoxy)ethoxy)ethyl)-1H-1,2,3-triazol-4-yl)methyl)methanaminium formation incubated for 72 hrs by LC-MS analysis. It counts as physicochemical. The following applies: buffer.
Data set [27] is described as follows: Stability of compound in 0.9 % saline solution assessed as 1-borono-N,N-dimethyl-N-((1-(2-(2-(2-(((2R,3R,4S,5S,6R)-3,4,5-trihydroxy-6-(hydroxymethyl)tetrahydro-2H-pyran-2-yl)oxy)ethoxy)ethoxy)ethyl)-1H-1,2,3-triazol-4-yl)methyl)methanaminium formation incubated for 72 hrs by LC-MS analysis. It counts as physicochemical. The following applies: buffer.
Data set [28] can be described thus: Stability of compound in 0.9 % saline solution assessed as 4-(boronomethyl)-4-(2-(2-(2-(((2R,3R,4S,5S,6R)-3,4,5-trihydroxy-6-(hydroxymethyl)tetrahydro-2H-pyran-2-yl)oxy)ethoxy)ethoxy)ethyl)morpholin-4-ium formation incubated for 72 hrs by LC-MS analysis. It counts as physicochemical. The following applies: buffer.
A short description of data set [29]: Stability of compound in 0.5 M NaOH assessed as 4-(boronomethyl)-4-(2-(2-(2-(((2R,3R,4S,5S,6R)-3,4,5-trihydroxy-6-(hydroxymethyl)tetrahydro-2H-pyran-2-yl)oxy)ethoxy)ethoxy)ethyl)morpholin-4-ium formation incubated for 72 hrs by LC-MS analysis. It counts as physicochemical.
Data set [30] can be described thus: Stability of compound in 0.3 % H2O2 assessed as (2R,3S,4S,5R,6R)-2-(hydroxymethyl)-6-(2-(2-(2-morpholinoethoxy)ethoxy)ethoxy)tetrahydro-2H-pyran-3,4,5-triol formation incubated for 1 hrs by LC-MS analysis. It counts as physicochemical.
Data set [31] can be described thus: Stability of compound in 50 mM Tris-HCL buffer at pH 7.4 assessed as 4-(boronomethyl)-4-(2-(2-(2-(((2R,3R,4S,5S,6R)-3,4,5-trihydroxy-6-(hydroxymethyl)tetrahydro-2H-pyran-2-yl)oxy)ethoxy)ethoxy)ethyl)morpholin4ium formation incubated for 72 hrs by LC-MS analysis. It counts as physicochemical. The following applies: pH 7.4, 72 h.
Data set [32] can be described thus: Stability of compound in 20 mM CH3COONH4 buffer at pH 5.8 assessed as 4-(boronomethyl)-4-(2-(2-(2-(((2R,3R,4S,5S,6R)-3,4,5-trihydroxy-6-(hydroxymethyl)tetrahydro-2H-pyran-2-yl)oxy)ethoxy)ethoxy)ethyl)morpholin-4-ium formation incubated for 72 hrs by LC-MS analysis. It counts as physicochemical. The following applies: pH 5.8, 72 h.
Data set [33] can be described thus: Stability of compound in 0.5 M NaOH assessed as 4-methyl-4-(2-(2-(2-(((2R,3R,4S,5S,6R)-3,4,5-trihydroxy-6-(hydroxymethyl)tetrahydro-2H-pyran-2-yl)oxy)ethoxy)ethoxy)ethyl)morpholin-4-ium formation incubated for 72 hrs by LC-MS analysis. It counts as physicochemical.
Data set [34] in a line: Stability of compound in 0.05 M HCL assessed as 4-(boronomethyl)-4-(2-(2-(2-(((2R,3R,4S,5S,6R)-3,4,5-trihydroxy-6-(hydroxymethyl)tetrahydro-2H-pyran-2-yl)oxy)ethoxy)ethoxy)ethyl)morpholin-4-ium formation incubated for 72 hrs by LC-MS analysis. It counts as physicochemical. The following applies: buffer.
The nature of data set [35]: Metabolic stability in mouse liver microsomes assessed as drug hydrolysis by measuring 4-(boronomethyl)-4-(2-(2-(2-(((2R,3R,4S,5S,6R)-3,4,5-trihydroxy-6-(hydroxymethyl)tetrahydro-2H-pyran-2-yl)oxy)ethoxy)ethoxy)ethyl)morpholin-4-ium incubated for 1 hrs by LC-MS/MS analysis. It counts as ADME, Microsome.

What is called half-life is the time needed for the level to fall by half in the phase considered.

With `OC[C@H]1O[C@@H](OCCOCCOCC[N+]2(C[B-](F)(F)F)CCCCC2)[C@H](O)[C@@H](O)[C@@H]1O`, the half-life in data set [1] was 1.81 h; in data set [6], 4.95 h; in data set [9], 0.108 h; in [12] it was 8.82 h; in data set [19], 4.76 h. Besides, the remaining at 1 h in data set [2] was determined as 14.1%. Further, the K in data set [3] was 6.439; in data set [4], 0.14; in data set [7] it was 0.146; in [14] it was 0.383; in data set [15], 0.078. For the same molecule, the Stability entry in data set [5], in [10], in [11], in [13], in data set [16] and in data set [17] was “Stable” in each case. The Stability result in data set [18] was “Stable”. In [8], the Drug metabolism result is “metabolite_detected”.
In the case of `C[N+](C)(Cc1cn(CCOCCOCCO[C@@H]2O[C@H](CO)[C@@H](O)[C@H](O)[C@H]2O)nn1)C[B-](F)(F)F`, the Stability entry in data set [20], in [21], in data set [22], in data set [23], in data set [25] and in data set [26] was “Stable” each time. The Stability result in data set [27] is on record as “Stable”. The half-life is 38.4 h in data set [1]; 36 h in data set [6]; 1.42 h in data set [9]; at least 15.7 h in data set [12]; at least 58 h in data set [19]. Also, the remaining at 1 h in data set [2] was determined as 1.2%. The K in [3] stood at 0.489; in [4], 0.019; in data set [7], 0.005; in data set [14] it was 0.018; in data set [15], 0.003. For the same molecule, the Drug metabolism result in data set [24] was “metabolite_detected”.
Turning to `OC[C@H]1O[C@@H](OCCOCCOCC[N+]2(C[B-](F)(F)F)CCOCC2)[C@H](O)[C@@H](O)[C@@H]1O`, the Stability entry in data set [28], in [29], in data set [30], in data set [31], in data set [32] and in data set [33] was “Stable” in each case. Further, the Stability entry in [34] is “Stable”. The half-life in [1] was 5.11 h; in [6], 11.3 h; in data set [9] it was 0.301 h; in [12], 32.7 h; in data set [19], 10.1 h. Moreover, the remaining at 1 h in data set [2] was 2.73%. Besides, the K in data set [3] is listed as 2.302; in [4], 0.061; in data set [7] it was 0.068; in data set [14] it was 0.136; in data set [15], 0.021. Moreover, the Drug metabolism result in data set [35] was “metabolite_detected”.
